Source: the supplement of paper PMC10307832

Columns and labels:
Assay in all cases: relative viability (nuclei count vs DMSO), 5 days (fraction); higher = more cells survive
YM155 + Tozasertib = compound: COCC[n+]1c2c(n(Cc3cnccn3)c1C)C(=O)c1ccccc1C2=O [YM155] + Cc1cc(Nc2cc(N3CCN(C)CC3)nc(Sc3ccc(NC(=O)C4CC4)cc3)n2)n[nH]1 [Tozasertib] (partner 0.1 µM)
Method in brief: (§1)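 Nuclei were stained with Hoechst during a one-step fixation (final 0.05% Triton X-100, 1% formaldehyde, 1 ug/ml Hoechst) carried out 5 days after dosing, then counted on 4× images. The cells, lung cancer lines in 1536-well plates, had been dosed by pin tool the day after seeding with one drug alone or a fixed anchor-drug dose plus five library-drug doses (not always all listed) in √10 steps. Relative viability is the nuclei count in treated wells divided by that in vehicle wells, and each value is the median of duplicate plates.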

Quizartinib + Foretinib = compound: CC(C)(C)c1cc(NC(=O)Nc2ccc(-c3cn4c(n3)sc3cc(OCCN5CCOCC5)ccc34)cc2)no1 [Quizartinib] + COc1cc2c(Oc3ccc(NC(=O)C4(C(=O)Nc5ccc(F)cc5)CC4)cc3F)ccnc2cc1OCCCN1CCOCC1 [Foretinib] (partner 0.25 µM)
Method in brief: as §1

Quizartinib + Pictilisib = compound: CC(C)(C)c1cc(NC(=O)Nc2ccc(-c3cn4c(n3)sc3cc(OCCN5CCOCC5)ccc34)cc2)no1 [Quizartinib] + CS(=O)(=O)N1CCN(Cc2cc3nc(-c4cccc5[nH]ncc45)nc(N4CCOCC4)c3s2)CC1 [Pictilisib] (partner 1 µM)
Method in brief: as §1

YM155 + Olaparib = compound: COCC[n+]1c2c(n(Cc3cnccn3)c1C)C(=O)c1ccccc1C2=O [YM155] + O=C(c1cc(Cc2n[nH]c(=O)c3ccccc23)ccc1F)N1CCN(C(=O)C2CC2)CC1 [Olaparib] (partner 8 µM)
Method in brief: as §1

Cell Line	relative viability (YM155 + Tozasertib; first compound 0.002 µM)	relative viability (YM155 + Tozasertib; first compound 0.006325 µM)	relative viability (YM155 + Tozasertib; first compound 0.02 µM)	relative viability (YM155 + Tozasertib; first compound 0.06325 µM)	relative viability (Quizartinib + Foretinib; first compound 0.001 µM)	relative viability (Quizartinib + Foretinib; first compound 0.01 µM)	relative viability (Quizartinib + Foretinib; first compound 0.03162 µM)	relative viability (Quizartinib + Foretinib; first compound 0.1 µM)	relative viability (Quizartinib + Pictilisib; first compound 0.001 µM)	relative viability (Quizartinib + Pictilisib; first compound 0.003162 µM)	relative viability (Quizartinib + Pictilisib; first compound 0.01 µM)	relative viability (Quizartinib + Pictilisib; first compound 0.03162 µM)	relative viability (Quizartinib + Pictilisib; first compound 0.1 µM)	relative viability (YM155 + Olaparib; first compound 0.002 µM)	relative viability (YM155 + Olaparib; first compound 0.006325 µM)	relative viability (YM155 + Olaparib; first compound 0.02 µM)	relative viability (YM155 + Olaparib; first compound 0.06325 µM)	relative viability (Quizartinib + Foretinib; first compound 0.003162 µM)
LK-2	0.154	0.188	0.208	0.203	1.29	1.03	1.33	1.43	0.594	0.474	0.826	0.526	0.55	0.644	0.71	0.797	0.75	
LOU-NH91	0.667	0.665	0.712	0.603	0.967	0.906	0.902	1.02	0.431	0.559	0.521	0.465	0.545	0.894	0.874	0.921	0.745	0.903
LU99A	0.26	0.255	0.318	0.265	0.715	0.838	0.808	0.603	0.312	0.317	0.327	0.309	0.291	0.269	0.236	0.255	0.262	0.871
LXF-289	0.186	0.214	0.205	0.183	0.913	1.13	0.948	0.888	0.71	0.748	0.801	0.763	0.777	0.984	1.04	1.04	0.947	1
NCI-H23	0.373	0.345	0.53	0.286		0.975	0.934	0.819		0.464	0.49	0.568	0.441		0.323	0.294	0.235	1.03
NCI-H322M	0.461	0.496	0.504	0.46	0.86	0.939	0.851	0.954	0.523	0.545	0.509	0.533	0.537	0.719	0.815	0.706	0.734	0.939
NCI-H358	0.111	0.126	0.103	0.0626	0.613	0.634	0.438	0.642	0.297	0.332	0.305		0.315	0.574	0.625	0.529	0.156	0.796
NCI-H441	0.559	0.63	0.645	0.467	1.23	1.13		0.914	0.38	0.508	0.508	0.379	0.606	0.597	0.524	0.518	0.299	0.923
NCI-H460	0.604	0.468	0.535	0.413	0.916	1.03	0.652	0.976	0.439	0.436	0.382	0.352	0.384	0.411	0.444	0.417	0.384	0.961
NCI-H520	0.432	0.496	0.48	0.377	0.81	0.894	0.722	0.541	0.306	0.273	0.307	0.287	0.245	0.362	0.441	0.379	0.294	0.636
NCI-H596	0.847	0.811	0.953	1.03	0.925	0.949	0.903	0.754	0.427	0.332	0.455	0.418	0.416	0.719	0.669	0.697	0.622	0.816
NCI-H647	0.317	0.302	0.401	0.303	0.818	1.1	1.16	1.17	0.466	0.434	0.536		0.474	0.506	0.64	0.516	0.295	1.09
NCI-H650	0.742	0.686	0.764	0.646	1.02	1.16	0.978	1.18	0.992	0.814	0.923	0.923	1.12	0.429	0.345	0.409	0.377	1.04
NCI-H661	0.376	0.358	0.369	0.285	0.963	1.13	0.994	1.01	0.425	0.388	0.364		0.467	0.727	0.686	0.739	0.41	0.945
NCI-H727	0.38	0.721	0.615	0.7	0.71	0.838	0.801	0.871	0.277		0.365	0.351	0.485	0.775	0.722	0.66	0.729	0.877
NCI-H838	0.252	0.275	0.252	0.19	0.991	0.99	0.938	0.684	0.389	0.479	0.356	0.39	0.377	0.711	0.787	0.761	0.416	1.01
NCI-H1355	0.617	0.518	0.654	0.597	0.917	0.936	0.814	1.06	0.352	0.418	0.41	0.426	0.5	0.751	0.731	0.8	0.725	0.957
NCI-H1395	0.788	0.779	0.814	0.777	0.961	1.02	0.995	1.03	0.478	0.65	0.661	0.695	0.667	0.489	0.457	0.46	0.456	0.971

Cell Line	relative viability (YM155 + Tozasertib; first compound 0.002 µM)	relative viability (YM155 + Tozasertib; first compound 0.006325 µM)	relative viability (YM155 + Tozasertib; first compound 0.02 µM)	relative viability (YM155 + Tozasertib; first compound 0.06325 µM)	relative viability (Quizartinib + Foretinib; first compound 0.001 µM)	relative viability (Quizartinib + Foretinib; first compound 0.01 µM)	relative viability (Quizartinib + Foretinib; first compound 0.03162 µM)	relative viability (Quizartinib + Foretinib; first compound 0.1 µM)	relative viability (Quizartinib + Pictilisib; first compound 0.001 µM)	relative viability (Quizartinib + Pictilisib; first compound 0.003162 µM)	relative viability (Quizartinib + Pictilisib; first compound 0.01 µM)	relative viability (Quizartinib + Pictilisib; first compound 0.03162 µM)	relative viability (Quizartinib + Pictilisib; first compound 0.1 µM)	relative viability (YM155 + Olaparib; first compound 0.002 µM)	relative viability (YM155 + Olaparib; first compound 0.006325 µM)	relative viability (YM155 + Olaparib; first compound 0.02 µM)	relative viability (YM155 + Olaparib; first compound 0.06325 µM)	relative viability (Quizartinib + Foretinib; first compound 0.003162 µM)
NCI-H1437	0.421	0.416	0.455	0.276	0.719	1.28	1.07	0.949	0.475	0.37	0.425	0.327	0.314	0.618	0.596	0.599	0.387	1.16
NCI-H1650	0.33	0.468	0.485	0.266	0.549	1.35		1.03	0.268	0.584	0.566		0.547	0.781	0.699	0.491	0.194	1.11
NCI-H1651	0.641	0.686	0.685	0.33	0.766	0.872	0.606	0.769	0.42	0.626	0.588	0.423	0.625	0.189	0.19	0.206	0.173	0.747
NCI-H1666	0.629	0.646	0.686	0.664	0.749	1.03	0.783	1.02	0.458	0.325	0.415	0.399	0.264	0.754	0.741	0.769	0.679	0.925
NCI-H1734	0.268	0.234	0.26	0.281	0.693	0.933	0.862	0.802	0.508	0.472	0.477	0.411	0.44	0.53	0.607	0.656	0.63	0.776
NCI-H1755	0.51	0.584	0.603	0.54	0.826	0.93	0.956	0.822	0.39	0.439	0.416	0.401	0.436	0.848	0.853	0.855	0.913	0.881
NCI-H1793	0.385	0.38	0.369	0.32	0.728	0.797	0.759	0.729	0.304	0.398	0.249	0.362	0.334	0.847	0.824	0.91	0.575	0.59
NCI-H1915	0.393	0.458	0.444	0.36	1.06	1.13	1.03	1.07	0.838	0.875	0.698	1	1.05	0.26	0.259	0.278	0.254	0.992
NCI-H1944	0.253	0.279	0.259	0.232	0.854	0.938	0.888	0.795	0.347	0.327	0.319	0.322	0.31	0.401	0.364	0.404	0.406	0.825
NCI-H1975	0.715	0.704	0.859	0.163	0.936	0.869	0.843	1.14	0.288	0.282	0.283	0.284	0.281	0.717	0.756	0.767	0.189	0.89
NCI-H1993	0.582	0.646	0.498	0.452	0.806	0.793	0.81	0.792	0.917	0.776	0.812	0.807	0.808	0.765	1.01	0.79	0.465	0.809
NCI-H2009	0.739	0.791	0.776	0.458	1.24	1.29	1.17	1.21	0.475	0.799	0.833	0.604	0.737	0.66	0.673	0.582	0.337	1.17
NCI-H2023	0.416	0.433	0.314	0.0926	0.788	0.869		0.742	0.224	0.271	0.216	0.121	0.245	0.558	0.468	0.379	0.325	0.752
NCI-H2085	0.794	0.804	0.867	0.77	0.868	1.2	0.873	0.883	0.5	0.504	0.479	0.595	0.523	0.737	0.755	0.805	0.516	0.853
NCI-H2087	0.253	0.23	0.253	0.219		1.12	0.941	1.07	0.393	0.867	0.916	0.665	0.81	0.547	0.589	0.586	0.49	1.05
NCI-H2126	0.807	0.88	0.948	0.934	1	1.2	1.22	1.23	0.473	0.504	0.462	0.519	0.541	0.884	0.921	0.935	0.946	1.12
NCI-H2170	0.831	0.792	0.784	0.722	0.932	1.08	0.981	1.12	0.388	0.327	0.308	0.42	0.321	0.605	0.583	0.668	0.62	0.956
NCI-H2228	0.265	0.26	0.213	0.316	0.927	1.01	0.715	1.02	0.364	0.312	0.456	0.386	0.464	0.67	0.597	0.809	0.581	0.954
